Test results reported in publication doi:10.1101/2023.12.04.569845, “Identification of 4-(6-((2-methoxyphenyl)amino)pyrazin-2-yl)benzoic acids as CSNK2A inhibitors with antiviral activity and improved selectivity over PIM3” (bioRxiv, 2023).
Like-named read-outs stand apart in the source and are kept apart here. Each block holds one molecule with its values, some of them ahead of it.

What was measured:
BRPF1 = molecular target: T1, BRPF1 (Homo sapiens, UniProt P55201); experiment: biochemical; parameters: Thermal shift (DSF, SYPRO Orange) Tm shift of recombinant kinase domains at 10 uM compound
T1 sequence (P55201 1-1214): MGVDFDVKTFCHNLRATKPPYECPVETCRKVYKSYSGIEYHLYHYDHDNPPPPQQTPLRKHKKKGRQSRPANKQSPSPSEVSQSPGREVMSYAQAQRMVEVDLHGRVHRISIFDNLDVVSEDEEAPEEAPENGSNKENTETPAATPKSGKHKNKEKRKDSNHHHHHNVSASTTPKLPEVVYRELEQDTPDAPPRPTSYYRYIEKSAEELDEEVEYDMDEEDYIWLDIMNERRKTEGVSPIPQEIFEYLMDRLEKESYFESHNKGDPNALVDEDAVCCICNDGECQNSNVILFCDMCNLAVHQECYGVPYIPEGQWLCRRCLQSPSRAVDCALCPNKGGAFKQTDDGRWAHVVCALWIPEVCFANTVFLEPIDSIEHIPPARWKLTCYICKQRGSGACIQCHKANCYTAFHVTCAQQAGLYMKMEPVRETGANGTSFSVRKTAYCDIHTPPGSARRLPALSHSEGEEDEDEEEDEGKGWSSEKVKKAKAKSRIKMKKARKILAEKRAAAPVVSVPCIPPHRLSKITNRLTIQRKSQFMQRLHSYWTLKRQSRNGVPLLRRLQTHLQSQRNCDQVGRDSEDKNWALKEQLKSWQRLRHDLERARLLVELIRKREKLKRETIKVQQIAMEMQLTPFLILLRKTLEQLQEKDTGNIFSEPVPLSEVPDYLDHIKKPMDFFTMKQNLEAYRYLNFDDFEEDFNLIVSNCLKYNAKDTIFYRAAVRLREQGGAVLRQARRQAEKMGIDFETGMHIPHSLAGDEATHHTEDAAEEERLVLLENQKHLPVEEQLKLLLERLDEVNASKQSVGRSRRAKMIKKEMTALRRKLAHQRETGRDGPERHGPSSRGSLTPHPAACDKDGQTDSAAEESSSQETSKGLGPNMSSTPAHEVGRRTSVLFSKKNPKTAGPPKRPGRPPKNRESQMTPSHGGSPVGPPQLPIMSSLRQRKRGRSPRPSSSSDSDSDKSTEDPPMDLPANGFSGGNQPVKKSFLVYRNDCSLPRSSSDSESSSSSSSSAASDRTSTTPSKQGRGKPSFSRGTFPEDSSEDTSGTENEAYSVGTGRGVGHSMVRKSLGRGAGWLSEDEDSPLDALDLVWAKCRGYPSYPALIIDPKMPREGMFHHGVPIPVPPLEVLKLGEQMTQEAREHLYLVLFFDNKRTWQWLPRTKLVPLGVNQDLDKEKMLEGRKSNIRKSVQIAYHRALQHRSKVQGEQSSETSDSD

EPHB1 = molecular target: T2, EPHB1 (Homo sapiens, UniProt P54762); experiment: biochemical; parameters: Thermal shift (DSF, SYPRO Orange) Tm shift of recombinant kinase domains at 10 uM compound
T2 sequence (P54762 1-984): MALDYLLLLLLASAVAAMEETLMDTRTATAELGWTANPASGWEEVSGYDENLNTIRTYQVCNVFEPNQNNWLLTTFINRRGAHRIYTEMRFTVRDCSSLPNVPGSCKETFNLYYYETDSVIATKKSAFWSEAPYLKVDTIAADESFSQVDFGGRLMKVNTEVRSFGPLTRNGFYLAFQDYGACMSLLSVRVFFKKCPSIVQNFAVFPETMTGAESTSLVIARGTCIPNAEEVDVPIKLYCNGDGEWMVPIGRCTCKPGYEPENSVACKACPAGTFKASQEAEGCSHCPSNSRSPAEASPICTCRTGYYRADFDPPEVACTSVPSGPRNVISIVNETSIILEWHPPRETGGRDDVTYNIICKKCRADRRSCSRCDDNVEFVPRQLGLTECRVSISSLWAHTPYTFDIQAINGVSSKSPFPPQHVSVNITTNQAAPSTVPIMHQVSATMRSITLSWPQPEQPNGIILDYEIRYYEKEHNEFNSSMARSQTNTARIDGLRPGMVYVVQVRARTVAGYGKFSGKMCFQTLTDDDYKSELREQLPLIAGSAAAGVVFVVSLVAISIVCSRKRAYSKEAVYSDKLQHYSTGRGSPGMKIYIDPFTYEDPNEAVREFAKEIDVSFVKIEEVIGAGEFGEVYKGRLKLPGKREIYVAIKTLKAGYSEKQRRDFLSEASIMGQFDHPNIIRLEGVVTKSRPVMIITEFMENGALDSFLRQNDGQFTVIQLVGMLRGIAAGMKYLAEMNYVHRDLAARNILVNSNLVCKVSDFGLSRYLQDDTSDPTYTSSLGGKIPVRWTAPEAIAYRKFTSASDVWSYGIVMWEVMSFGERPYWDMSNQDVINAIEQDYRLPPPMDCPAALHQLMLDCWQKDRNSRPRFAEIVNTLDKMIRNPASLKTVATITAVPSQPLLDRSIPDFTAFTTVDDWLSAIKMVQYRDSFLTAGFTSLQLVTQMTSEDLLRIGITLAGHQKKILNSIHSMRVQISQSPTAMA

ΔTm at 10 µM (BRPF1; read-out: 6c): -1 °C
ΔTm at 10 µM (EPHB1; read-out: 6c): 2 °C
Compound: CC(C)Oc1ccc2ccn(-c3cncc(-c4ccc(C(=O)O)cc4)n3)c2c1 [6c]

ΔTm at 10 µM (BRPF1; read-out: 7c): 0 °C
ΔTm at 10 µM (EPHB1; read-out: 7c): 1 °C
Compound: COc1ccc(OC(C)C)cc1Nc1cncc(-c2ccc(C(=O)O)cc2)n1 [7c]

ΔTm at 10 µM (BRPF1; read-out: 2): 2 °C
ΔTm at 10 µM (EPHB1; read-out: 2): 2 °C
Compound: CC(C)Nc1ccc2cnn(-c3cncc(-c4ccc(C(=O)O)cc4)n3)c2c1 [compound 2, 2]
